Laboratory results reported in patent US9718808B2, “Inhibitors of the renal outer medullary potassium channel” (Merck Sharp & Dohme Corp., priority 2014, dated 2017).

target: ROMK (Kir1.1) channel (Homo sapiens (Human), UniProt P48048); assay: Thallium Flux Assay; assay type: cell-based
Method: A Thallium Flux Assay was performed on each of the final product compounds of the Examples. This assay has been described previously; see, e.g., PCT Published Application WO 2013/062900.

Sequence of ROMK (Kir1.1) channel (P48048 whole entry): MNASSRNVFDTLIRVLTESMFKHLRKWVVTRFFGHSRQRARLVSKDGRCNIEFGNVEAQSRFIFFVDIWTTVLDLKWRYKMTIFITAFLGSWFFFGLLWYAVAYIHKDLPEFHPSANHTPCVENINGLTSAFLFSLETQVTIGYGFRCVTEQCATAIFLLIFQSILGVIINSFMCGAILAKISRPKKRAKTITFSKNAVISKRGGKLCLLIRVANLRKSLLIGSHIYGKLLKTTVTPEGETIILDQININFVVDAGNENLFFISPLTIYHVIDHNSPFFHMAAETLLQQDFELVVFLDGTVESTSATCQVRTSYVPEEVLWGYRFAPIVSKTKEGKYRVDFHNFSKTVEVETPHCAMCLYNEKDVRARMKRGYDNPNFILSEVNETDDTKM

SMILES | IC50
CC1=C(N2CC[C@]3(CC[C@@H](NCCc4ccc5c(c4)COC5=O)CC3)C2=O)COC1=O [Example 2, (5r,8r)-2-(4-methyl-5-oxo-2,5-dihydrofuran-3-yl)-8-{[2-(1-oxo-1,3-dihydro-2-benzofuran-5-yl)ethyl]amino}-2-azaspiro[4.5]decan-1-one] | 44 nM
CC1=C(N2CC[C@]3(CC[C@H](NCCc4ccc5c(c4)COC5=O)CC3)C2=O)COC1=O [Example 3, (5s,8s)-2-(4-methyl-5-oxo-2,5-dihydrofuran-3-yl)-8-{[2-(1-oxo-1,3-dihydro-2-benzofuran-5-yl)ethyl]amino}-2-azaspiro[4.5]decan-1-one] | 200 nM
CC1=C(N2CC[C@]3(CC[C@H](NCc4ccc5c(c4C)COC5=O)CC3)C2=O)COC1=O [Example 4, (5s,8s)-8-(((4-methyl-1-oxo-1,3-dihydroisobenzofuran-5-yl)methyl)amino)-2-(4-methyl-5-oxo-2,5-dihydrofuran-3-yl)-2-azaspiro[4.5]decan-1-one] | 350 nM
CC1=C(N2CC[C@]3(CC[C@H](NCc4ccc(-n5cnnn5)nc4)CC3)C2=O)COC1=O [Example 6, (5s,8s)-2-(4-methyl-5-oxo-2,5-dihydrofuran-3-yl)-8-({[6-(1H-tetrazol-1-yl)pyridin-3-yl]methyl}amino)-2-azaspiro[4.5]decan-1-one] | 450 nM
CC1=C(N2CC[C@]3(CC[C@@H](NCc4ccc(-n5cnnn5)cn4)CC3)C2=O)COC1=O [Example 7B, (5r,8r)-2-(4-methyl-5-oxo-2,5-dihydrofuran-3-yl)-8-({[5-(1H-tetrazol-1-yl)pyridin-2-yl]methyl}amino)-2-azaspiro[4.5]decan-1-one] | 710 nM
CC1=C(N2CC[C@]3(CC[C@@H](N[C@@H](C)c4ccc(-n5cnnn5)nc4)CC3)C2=O)COC1=O [Example 9, (5S,8r)-2-(4-methyl-5-oxo-2,5-dihydrofuran-3-yl)-8-({(1S)-1-[6-(1H-tetrazol-1-yl)pyridin-3-yl]ethyl}amino)-2-azaspiro[4.5]decan-1-one] | 34 nM
CC1=C(N2CC[C@]3(CC[C@@H](NCc4ccc5c(c4)Cn4nnnc4-5)CC3)C2=O)COC1=O [Example 11, (5r,8r)-2-(4-methyl-5-oxo-2,5-dihydrofuran-3-yl)-8-[(5H-tetrazolo[5,1-a]isoindol-7-ylmethyl)amino]-2-azaspiro[4.5]decan-1-one] | 110 nM

These reach a lower IC50. Values come first.

IC50 | SMILES
24 nM | CC1=C(N2CC[C@]3(CC[C@H](NCc4ccc(-n5cnnn5)cn4)CC3)C2=O)COC1=O [Example 7A, (5s,8s)-2-(4-methyl-5-oxo-2,5-dihydrofuran-3-yl)-8-({[5-(1H-tetrazol-1-yl)pyridin-2-yl]methyl}amino)-2-azaspiro[4.5]decan-1-one]
18 nM | CC1=C(N2CC[C@]3(CC[C@@H](N[C@H](C)c4ccc(-n5cnnn5)nc4)CC3)C2=O)COC1=O [Example 10, (5R,8r)-8-(((R)-1-(6-(1H-tetrazol-1-yl)pyridin-3-yl)ethyl)amino)-2-(4-methyl-5-oxo-2,5-dihydrofuran-3-yl)-2-azaspiro[4.5]decan-1-one]
16 nM | CC1=C(N2CC[C@]3(CC[C@@H](NCc4ccc(-n5cnnn5)nc4)CC3)C2=O)COC1=O [Example 5, (5r,8r)-2-(4-methyl-5-oxo-2,5-dihydrofuran-3-yl)-8-({[6-(1H-tetrazol-1-yl)pyridin-3-yl]methyl}amino)-2-azaspiro[4.5]decan-1-one]
10 nM | CC1=C(N2CC[C@]3(CC[C@@H](NCc4ccc(-n5cnnn5)nn4)CC3)C2=O)COC1=O [Example 1, (5r,8r)-2-(4-methyl-5-oxo-2,5-dihydrofuran-3-yl)-8-({[6-(1H-tetrazol-1-yl)pyridazin-3-yl]methyl}amino)-2-azaspiro[4.5]decan-1-one]
8.3 nM | CC1=C(N2CC[C@]3(CC[C@@H](NCc4nnc(-n5cnnn5)cc4C)CC3)C2=O)COC1=O [Example 12, (5r,8r)-2-(4-methyl-5-oxo-2,5-dihydrofuran-3-yl)-8-({[4-methyl-6-(1H-tetrazol-1-yl)pyridazin-3-yl]methyl}amino)-2-azaspiro[4.5]decan-1-one]
